For 34 compounds, IC50 and Ki results are on record in patent publication US11319306B2, “Compositions and methods for treating neurodegenerative diseases” (Azevan Pharmaceuticals, Inc., priority 2014, dated 2022).

Usually IC50 stands for the concentration that gives 50% inhibition. As a reminder, the Ki is a measure of affinity in units of concentration, obtained from inhibition or displacement.

This assay deals with T1, human V1a receptor (Homo sapiens, UniProt P37288).
T1 construct: host or cells: CHO cells (hV1a cell line)
As to the kind of experiment: Human vasopressin V1a receptor binding assay (3H-AVP competition, hV1a CHO cells). Particulars: 3H-AVP competition, CHO cells expressing human V1a; for IC50: read-out: V1a Binding Affinity IC50; for Ki: read-out: V1a Ki. Here is the method:
Human vasopression V1a receptor binding assay. A cell line expressing the human V1a receptor in CHO cells (henceforth referred to as the hV1a cell line) was obtained from Dr. Michael Brownstein, NIMH, Bethesda, Md., USA. The hV1a cDNA sequence is described by Thibonnier et al., Journal of Biological Chemistry, 269, 3304-3310 (1994), and the expression method was the same as described by Morel et al. (1992). The hV1a cell line was grown in alpha-MEM with 10% fetal bovine serum and 250 ug/ml G418 (Gibco, Grand Island, N.Y., USA). For competitive binding assay, hV1a cells were plated into 6-well culture plate at 1:10 dilution from a confluency flask, and maintained in culture for at least two days. Culture medium was then removed, cells were washed with 2 ml binding buffer (25 mM Hepes, 0.25% BSA, 1×DMEM, PH=7.0). To each well, 990 μl binding buffer containing InM 3H-AVP was added, and followed by 10 μl series diluted Example compounds dissolved in DMSO. […] 100 nM cold AVP (Sigma) was used to assess non-specific binding. Cells were incubated for 45 minutes at 37° C., assay mixture was removed and each well was washed three times with PBS (pH=7.4). 1 ml 2% SDS was added per well and plates were let sit for 30 minutes. The whole content in a well was transferred to a scintillation vial. Each well was rinsed with 0.5 ml PBS which was then added to the corresponding vial. Scintillation fluid (Ecoscint, National Diagnostics, Atlanta, Ga.) was then added at 3 ml per vial. Samples were counted in a liquid scintillation counter (Beckman LS3801). IC50 values were calculated by Prism Curve fitting software.
All of the alkanedioic esters and amides exemplified in the foregoing examples dissolved in DMSO were tested in this assay. Binding curves were generated according to methods described by Thibonnier et al. (1994). [^3H]-AVP was added to the hV1a cell cultures followed by 10-fold dilutions of each test compound.

T1 sequence (P37288 whole entry): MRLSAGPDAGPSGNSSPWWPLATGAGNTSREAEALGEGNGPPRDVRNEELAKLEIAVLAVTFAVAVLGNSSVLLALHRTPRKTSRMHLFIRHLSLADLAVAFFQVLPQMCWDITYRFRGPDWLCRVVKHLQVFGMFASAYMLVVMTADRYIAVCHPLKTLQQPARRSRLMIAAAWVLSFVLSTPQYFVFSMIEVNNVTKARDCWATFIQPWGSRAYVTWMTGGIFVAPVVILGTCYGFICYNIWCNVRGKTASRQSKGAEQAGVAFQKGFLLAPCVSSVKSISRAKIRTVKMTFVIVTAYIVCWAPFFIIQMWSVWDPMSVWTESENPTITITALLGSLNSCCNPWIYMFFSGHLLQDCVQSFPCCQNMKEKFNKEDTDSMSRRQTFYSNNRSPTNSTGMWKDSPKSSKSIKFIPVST

As for `O=C(CC(C(=O)NCc1cccc(C(F)(F)F)c1)N1C(=O)C(N2C(=O)OCC2c2ccccc2)C1C=Cc1ccccc1)NC1CCN(Cc2ccccc2)CC1` (centres unmarked) [Example 134C], the IC50 turned out to be 9.1 nM and the Ki was found to be 5.58 nM.
As for `COc1cccc(C(C)NC(=O)C(CCC(=O)N2CCN(C3CCCCC3)CC2)N2C(=O)C(N3C(=O)OCC3c3ccccc3)C2C=Cc2ccccc2)c1` (centres unmarked) [Example 203], the IC50 is 2.46 nM and the Ki was 1.5 nM.
As to `O=C(NCc1cccc(C(F)(F)F)c1)C(CCC(=O)N1CCN(CCc2ccccc2)CC1)N1C(=O)C(N2C(=O)OCC2c2ccccc2)C1C=Cc1ccccc1` (centres unmarked) [Example 136], the IC50 is 11 nM and the Ki stood at 33 nM.
Regarding `O=C([C@@H](CSCc1ccccc1)N1C(=O)[C@@H](N2C(=O)OC[C@@H]2c2ccccc2)[C@H]1/C=C/c1ccccc1)N1CCC(CCN2CCCCC2)CC1` [Example 238, (2S)-(Benzylthiomethyl)-2-[3(S)-(4(S)-phenyloxazolidin-2-on-3-yl)-4(R)-(2-styryl)azetidin-2-on-1-yl]acetic acid N-[4-[2-(piperid-1-yl)ethyl]piperidin-1-yl]amide], the IC50 turned out to be 0.11 nM and the Ki was 0.07 nM.
The corresponding values for `O=C(NCc1cccc(C(F)(F)F)c1)C(CCC(=O)N1CCN(C2CCCCC2)CC1)N1C(=O)C(N2C(=O)OCC2c2ccccc2)C1C=Cc1ccccc1` (centres unmarked) [Example 139] are 9.5 nM and 5.84 nM.
Regarding `CCN1CCN(C(=O)CCC(C(=O)NCc2cccc(C(F)(F)F)c2)N2C(=O)C(N3C(=O)OCC3c3ccccc3)C2C(Cl)=Cc2ccccc2)CC1` (centres unmarked) [Example 228], the IC50 worked out at 13.6 nM and the Ki was found to be 8.35 nM.
Consider `O=C(N[C@@H]1CCCc2ccccc21)[C@H](CCC(=O)N1CCN(C2CCCCC2)CC1)N1C(=O)[C@@H](N2C(=O)OC[C@@H]2c2ccccc2)[C@H]1/C=C/c1cccc(F)c1` [Example 245], for which the IC50 is 1.1 nM and the Ki came to 0.68 nM.
The corresponding values for `CN(Cc1cccc(Cl)c1Cl)C(=O)C(CCC(=O)N1CCN(C2CCCCC2)CC1)N1C(=O)C(N2C(=O)OCC2c2ccccc2)C1C=Cc1ccccc1` (centres unmarked) [Example 221B] are 0.59 nM and 0.36 nM.
In the case of `O=C(NC1CCCc2ccccc21)C(CCC(=O)N1CCCC1CN1CCCC1)N1C(=O)C(N2C(=O)OCC2c2ccccc2)C1C=Cc1ccccc1` (centres unmarked) [Example 221Y], the IC50 was 7.6 nM and the Ki was found to be 4.7 nM.
For the compound `O=C(NCc1cccc(C(F)(F)F)c1)C(C(=O)NC1CCN(Cc2ccccc2)CC1)N1C(=O)C(N2C(=O)OCC2c2ccccc2)C1C=Cc1ccccc1` (centres unmarked) [Example 39], the IC50 was 23 nM and the Ki came to 13.3 nM.
For `O=C(NC1(c2cccc(F)c2)CCCC1)C(CCC(=O)N1CCN(C2CCCCC2)CC1)N1C(=O)C(N2C(=O)OCC2c2ccccc2)C1C=Cc1ccccc1` (centres unmarked) [Example 221AM], the Ki turned out to be 2.7 nM.
As to `O=C(NC(CCO)c1ccccc1)C(CCC(=O)N1CCN(C2CCCCC2)CC1)N1C(=O)C(N2C(=O)OCC2c2ccccc2)C1C=Cc1ccccc1` (centres unmarked) [Example 221Q], the IC50 is 18.1 nM and the inhibition constant Ki is 11.1 nM.
Take `CC(C)N1CCN(C(=O)CCC(C(=O)NCc2cccc(C(F)(F)F)c2)N2C(=O)C(N3C(=O)OCC3c3ccccc3)C2C(Cl)=Cc2ccccc2)CC1` (centres unmarked) [Example 230]: the IC50 stood at 7.07 nM and the Ki worked out at 4.33 nM.
Consider `CC(C)(C)OC(=O)CCC(C(=O)NCc1cccc(C(F)(F)F)c1)N1C(=O)C(N2C(=O)OCC2c2ccccc2)C1C=Cc1ccccc1` [Example 20, 2(S)-(tert-Butoxycarbonylethyl)-2-[3(S)-(4(S)-phenyloxazolidin-2-on-3-yl)-4(R)-(2-styryl)azetidin-2-on-1-yl]acetic acid N-(3-trifluoromethylbenzyl)amide], for which the IC50 came out at 35 nM.
For the compound `O=C(NC1(c2ccccc2)CCCC1)C(CC(=O)N1CCC(N2CCCCC2)CC1)N1C(=O)C(N2C(=O)OCC2c2ccccc2)C1C=Cc1ccccc1` (centres unmarked) [Example 132D], the IC50 was 6.3 nM and the Ki turned out to be 3.9 nM.
The corresponding values for `O=C(C(COCc1ccccc1)N1C(=O)C(N2C(=O)OCC2c2ccccc2)C1C=Cc1ccccc1)N1CCC(CCN2CCCCC2)CC1` (centres unmarked) [Example 233] are 0.56 nM and 0.34 nM.
For `C[C@@H](NC(=O)[C@H](CCC(=O)N1CCN(C2CCCCC2)CC1)N1C(=O)[C@@H](N2C(=O)OC[C@@H]2c2ccccc2)[C@H]1/C=C/c1ccccc1)c1cccc(C(F)(F)F)c1` [Example 221F], in that order: 1.7 nM and 1.04 nM.
For `CCN1CCN(C(=O)CC[C@@H](C(=O)NC2(c3ccccc3)CCCC2)N2C(=O)[C@@H](N3C(=O)OC[C@@H]3c3ccccc3)[C@H]2/C=C/c2ccccc2)CC1` [Example 239], in that order: 6.6 nM and 4 nM.
Turning to `CN(Cc1cccc(Br)c1)C(=O)C(CCC(=O)N1CCN(C2CCCCC2)CC1)N1C(=O)C(N2C(=O)OCC2c2ccccc2)C1C=Cc1ccccc1` (centres unmarked) [Example 221D], the IC50 was determined as 2.41 nM and the Ki is 1.48 nM.
In the case of `O=C(NCc1cccc(C(F)(F)F)c1)C(CC(=O)N1CCC(CCN2CCCCC2)CC1)N1C(=O)C(N2C(=O)OCC2c2ccccc2)C1C=Cc1ccccc1` (centres unmarked) [Example 86A], the IC50 amounted to 9.79 nM and the Ki was 6 nM.
On to `O=C(N[C@@H]1CCCc2ccccc21)[C@H](CCC(=O)N1CCN(C2CCCC2)CC1)N1C(=O)[C@@H](N2C(=O)OC[C@@H]2c2ccccc2)[C@H]1/C=C/c1ccccc1` [Example 241], for which the IC50 came to 2 nM and the Ki was 1.24 nM.
For `O=C(CC[C@@H](C(=O)NCc1cccc(C(F)(F)F)c1)N1C(=O)[C@@H](N2C(=O)OC[C@@H]2c2ccccc2)[C@H]1/C=C/c1ccccc1)NCCN1CCCCC1` [Example 87], the IC50 was found to be 15 nM.
Take `O=C(CCC(C(=O)N1CCc2ccccc2C1)N1C(=O)C(N2C(=O)OCC2c2ccccc2)C1C=Cc1ccccc1)N1CCN(C2CCCCC2)CC1` (centres unmarked) [Example 221O]: the IC50 was determined as 8.4 nM and the Ki came out at 5.1 nM.
With `COc1cccc(/C=C/[C@@H]2[C@H](N3C(=O)OC[C@@H]3c3ccccc3)C(=O)N2[C@@H](CCC(=O)N2CCN(C3CCCCC3)CC2)C(=O)N[C@@H]2CCCc3ccccc32)c1` [Example 242], the IC50 amounted to 2.2 nM and the Ki was 1.36 nM.
As to `CN(Cc1cc(Cl)cc(Cl)c1)C(=O)C(CCC(=O)N1CCN(C2CCCCC2)CC1)N1C(=O)C(N2C(=O)OCC2c2ccccc2)C1C=Cc1ccccc1` (centres unmarked) [Example 221E], the IC50 is 20.2 nM and the Ki worked out at 12.4 nM.
With `O=C(NCc1cccc(C(F)(F)F)c1)C(C(=O)N1CCN(C2CCCCC2)CC1)N1C(=O)[C@@H](N2C(=O)OC[C@@H]2c2ccccc2)[C@H]1/C=C/c1ccccc1` (mixture of isomers) [Example 42], the Ki amounted to 26.4 nM.
With `CCCCN1CCN(C(=O)CCC(C(=O)NCc2cccc(C(F)(F)F)c2)N2C(=O)C(N3C(=O)OCC3c3ccccc3)C2C(Br)=Cc2ccccc2)CC1` (centres unmarked) [Example 230L], the IC50 was 12.7 nM and the Ki is 7.8 nM.
For `O=C(N[C@@H]1CCCc2ccccc21)[C@H](CCC(=O)N1CCN(C2CCCCC2)CC1)N1C(=O)[C@@H](N2C(=O)OC[C@@H]2c2ccccc2)[C@H]1/C=C/c1cc(Cl)cc(Cl)c1` [Example 252], in that order: 1.8 nM and 1.1 nM.
In the case of `O=C(NCc1cccc(C(F)(F)F)c1)[C@H](CC(=O)N1CCCN(Cc2ccccc2)CC1)N1C(=O)[C@@H](N2C(=O)OC[C@@H]2c2ccccc2)[C@H]1/C=C/c1ccccc1` [Example 82], the Ki was determined as 5.12 nM.
As to `O=C(CCC(C(=O)NC1CCCc2ccccc21)N1C(=O)C(N2C(=O)OCC2c2ccccc2)C1C=Cc1ccccc1)NCCN1CCCCC1` (centres unmarked) [Example 221X], the IC50 turned out to be 11.6 nM and the Ki was 7.2 nM.
For `CC(C)N1CCN(C(=O)C(C(=O)NCc2cccc(C(F)(F)F)c2)N2C(=O)[C@@H](N3C(=O)OC[C@@H]3c3ccccc3)[C@H]2/C=C/c2ccccc2)CC1` (mixture of isomers) [Example 41], the inhibition constant (Ki) is 18.2 nM.
Turning to `O=C(NCc1cccc(C(F)(F)F)c1)C(CCC(=O)N1CCN(Cc2ccc3c(c2)OCO3)CC1)N1C(=O)C(N2C(=O)OCC2c2ccccc2)C1C=Cc1ccccc1` (centres unmarked) [Example 96], the IC50 was 4.35 nM and the Ki came to 2.66 nM.
In the case of `O=C(NC1CCCc2ccccc21)C(CCC(=O)N1CCN(CCCO)CC1)N1C(=O)C(N2C(=O)OCC2c2ccccc2)C1C=Cc1ccccc1` (centres unmarked) [Example 221BI], the IC50 worked out at 56 nM and the Ki was 35 nM.
The corresponding values for `O=C(N[C@@H]1CCCc2ccccc21)[C@H](CCC(=O)N1CCN(C2CCCCC2)CC1)N1C(=O)[C@@H](N2C(=O)OC[C@@H]2c2ccccc2)[C@H]1/C=C/c1ccccc1Cl` [Example 250] are 6.5 nM and 4 nM.
